Laboratory results: patent EP4273147A1, “SUBSTITUTED SPIROLACTAMS, SALTS THEREOF AND THEIR USE AS HERBICIDALLY ACTIVE SUBSTANCES” (Bayer Aktiengesellschaft, priority 2022, dated 2023)

Tests used:
[1] = system: ECHCG; assay: Herbicidal pre-emergence action (Table A2); format: in vivo, Echinochloa crus-galli; settings: visual grading after ca. 3 weeks
Summary of the method: (§1)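 Weed seeds are sown into sandy loam in pots and covered with soil, with two species per pot, one monocot and one dicot.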

[2] = system: LOLRI; assay: Herbicidal pre-emergence action (Table A3); format: in vivo, Lolium rigidum; settings: visual grading after ca. 3 weeks
Summary of the method: as §1

[3] = system: MATIN; assay: Herbicidal pre-emergence action (Table A4); format: in vivo, Matricaria inodora; settings: visual grading after ca. 3 weeks
Summary of the method: as §1

[4] = system: SETVI; assay: Herbicidal pre-emergence action (Table A5); format: in vivo, Setaria viridis; settings: visual grading after ca. 3 weeks
Summary of the method: as §1

[5] = system: STEME; assay: Herbicidal pre-emergence action (Table A6); format: in vivo, Stellaria media; settings: visual grading after ca. 3 weeks
Summary of the method: as §1

[6] = system: POAAN; assay: Herbicidal pre-emergence action (Table A7); format: in vivo, Poa annua; settings: visual grading after ca. 3 weeks
Summary of the method: as §1

[7] = system: ALOMY; assay: Herbicidal pre-emergence action (Table A9); format: in vivo, Alopecurus myosuroides; settings: application rate 1280 g/ha; visual grading after ca. 3 weeks
Summary of the method: as §1

[8] = system: KCHSC; assay: Herbicidal pre-emergence action (Table A10); format: in vivo, Kochia scoparia; settings: visual grading after ca. 3 weeks
Summary of the method: as §1

[9] = system: VERPE; assay: Herbicidal pre-emergence action (Table A11); format: in vivo, Veronica persica; settings: application rate 1280 g/ha; visual grading after ca. 3 weeks
Summary of the method: as §1

[10] = system: DIGSA; assay: Herbicidal pre-emergence action (Table A12); format: in vivo, Digitaria sanguinalis; settings: application rate 320 g/ha; visual grading after ca. 3 weeks
Summary of the method: as §1

[11] = system: ECHCG; assay: Herbicidal post-emergence action (Table B3); format: in vivo, Echinochloa crus-galli; settings: application rate 1280 g/ha; rated visually after about 3 weeks
Summary of the method: (§2)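 Treated at one-leaf stage (2–3 weeks after sowing in sandy loam, greenhouse-grown). Visual efficacy rating after about 3 weeks; 0% = like controls, 100% = complete kill.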

[12] = system: MATIN; assay: Herbicidal post-emergence action (Table B6); format: in vivo, Matricaria inodora; settings: application rate 1280 g/ha; rated visually after about 3 weeks
Summary of the method: as §2

[13] = system: SETVI; assay: Herbicidal post-emergence action (Table B8); format: in vivo, Setaria viridis; settings: application rate 1280 g/ha
Summary of the method: as §2

[14] = system: ABUTH; assay: Herbicidal pre-emergence action, section C (Table C1); format: in vivo, Abutilon theophrasti; settings: application rate 320 g/ha; visual grading after ca. 3 weeks
[15] = system: ALOMY; assay: Herbicidal pre-emergence action, section C (Table C2); format: in vivo, Alopecurus myosuroides; settings: application rate 80 g/ha; visual grading after ca. 3 weeks
[16] = system: DIGSA; assay: Herbicidal pre-emergence action, section C (Table C5); format: in vivo, Digitaria sanguinalis; settings: application rate 320 g/ha; visual grading after ca. 3 weeks
[17] = system: ECHCG; assay: Herbicidal pre-emergence action, section C (Table C6); format: in vivo, Echinochloa crus-galli; settings: application rate 320 g/ha; visual grading after ca. 3 weeks
[18] = system: LOLRI; assay: Herbicidal pre-emergence action, section C (Table C7); format: in vivo, Lolium rigidum; settings: application rate 320 g/ha; visual grading after ca. 3 weeks
[19] = system: MATIN; assay: Herbicidal pre-emergence action, section C (Table C8); format: in vivo, Matricaria inodora; settings: application rate 320 g/ha; visual grading after ca. 3 weeks
[20] = system: POLCO; assay: Herbicidal pre-emergence action, section C (Table C9); format: in vivo, Polygonum convolvulus; settings: application rate 320 g/ha; visual grading after ca. 3 weeks
[21] = system: SETVI; assay: Herbicidal pre-emergence action, section C (Table C10); format: in vivo, Setaria viridis; settings: visual grading after ca. 3 weeks
[22] = system: VERPE; assay: Herbicidal pre-emergence action, section C (Table C11); format: in vivo, Veronica persica; settings: application rate 320 g/ha; visual grading after ca. 3 weeks
[23] = system: VIOTR; assay: Herbicidal pre-emergence action, section C (Table C12); format: in vivo, Viola tricolor; settings: application rate 80 g/ha; visual grading after ca. 3 weeks
[24] = system: ZEAMX; assay: Pre-emergence effects on crop plants (Table D1); format: in vivo, Zea mays; settings: crop plant; application rate 320 g/ha; visual grading after ca. 3 weeks
[25] = system: TRZAS; assay: Pre-emergence effects on crop plants (Table D2); format: in vivo, Triticum aestivum; settings: crop plant, visual grading after ca. 3 weeks
[26] = system: ECHCG; assay: Herbicidal post-emergence action, section E (Table E5); format: in vivo, Echinochloa crus-galli; settings: application rate 320 g/ha; assessed visually after ca. 3 weeks
Source text: (§3) 2 to 3 weeks after sowing, the test plants were sprayed in the single-leaf stage.

[27] = system: SETVI; assay: Herbicidal post-emergence action, section E (Table E8); format: in vivo, Setaria viridis; settings: assessed visually after ca. 3 weeks
Source text: as §3

[28] = system: ZEAMX; assay: Post-emergence effects on crop plants (Table F1); format: in vivo, Zea mays; settings: crop plant ZEAMX
Source text: as §3

[29] = system: TRZAS; assay: Post-emergence effects on crop plants (Table F2); format: in vivo, Triticum aestivum; settings: application rate 320 g/ha, crop plant TRZAS
Source text: as §3

[30] = system: ORYZA; assay: Post-emergence effects on crop plants (Table F3); format: in vivo, Oryza sativa; settings: application rate 320 g/ha, crop plant ORYZA
Source text: as §3

[31] = system: ORYZA; assay: Pre-emergence effects on crop plants (Table D3); settings: crop plant, visual grading after ca. 3 weeks
Source text: (§5) Seeds of mono- and dicotyledonous weed plants and crop plants were sown, in plastic or organic planting pots, in sandy loam and covered with soil. The compounds according to the invention, formulated in the form of wettable powders (WP) or as emulsifiable concentrates (EC), were applied to the surface of the covering soil as aqueous suspension or emulsion, with the addition of 0.5% of an additive, at an application rate of 600 1 of water/ha (converted).
(§6) Following treatment, the pots were placed in a greenhouse and kept under optimum growth conditions for the test plants.

[32] = system: ALOMY; assay: Herbicidal post-emergence action (Table B2); format: in vivo, Alopecurus myosuroides; settings: application rate 1280 g/ha; rated visually after about 3 weeks
Method: (§4) Seeds of mono- and dicotyledonous weed plants were placed in plastic pots in sandy loam soil (doubly sown with in each case one species of mono- or dicotyledonous weed plants per pot), covered with soil and cultivated in a greenhouse under controlled growth conditions. 2 to 3 weeks after sowing, the test plants were treated at the one-leaf stage. […] After the test plants had been kept in the greenhouse under optimum growth conditions for about 3 weeks, the activity of the preparations was rated visually in comparison to untreated controls. For example, 100% activity = the plants have died, 0% activity = like control plants.

[33] = system: GLXMA; assay: Pre-emergence effects on crop plants (Table D4); format: in vivo, Glycine max; settings: crop plant; application rate 80 g/ha; visual grading after ca. 3 weeks
Source text: as §5, §6

[34] = system: BRSNW; assay: Pre-emergence effects on crop plants (Table D5); format: in vivo, Brassica napus; settings: crop plant; application rate 320 g/ha; visual grading after ca. 3 weeks
[35] = system: VIOTR; assay: Herbicidal post-emergence action, section E (Table E10); format: in vivo, Viola tricolor; settings: application rate 320 g/ha; assessed visually after ca. 3 weeks
Source text: as §3

[36] = system: GLXMA; assay: Post-emergence effects on crop plants (Table F4); format: in vivo, Glycine max; settings: application rate 320 g/ha, crop plant GLXMA
Source text: as §3

[37] = system: BRSNW; assay: Post-emergence effects on crop plants (Table F5); format: in vivo, Brassica napus; settings: application rate 80 g/ha, crop plant BRSNW
Source text: as §3

[38] = system: KCHSC; assay: Herbicidal post-emergence action (Table B4); format: in vivo, Kochia scoparia; settings: application rate 1280 g/ha; rated visually after about 3 weeks
Method: as §4

[39] = system: VERPE; assay: Herbicidal post-emergence action (Table B10); format: in vivo, Veronica persica; settings: application rate 1280 g/ha
Summary of the method: as §2

Row | pre-emergence activity against ZEAMX [24] | pre-emergence activity against TRZAS ([25]; application rate 320 g/ha) | pre-emergence activity against BRSNW [34] | SMILES | pre-emergence activity against ECHCG ([1]; application rate 320 g/ha) | pre-emergence activity against SETVI ([4]; application rate 320 g/ha) | pre-emergence activity against STEME ([5]; application rate 320 g/ha) | pre-emergence activity against POAAN ([6]; application rate 320 g/ha) | pre-emergence activity against ALOMY [7] | pre-emergence activity against VERPE [9] | pre-emergence activity against DIGSA [10] | pre-emergence activity against DIGSA [16] | pre-emergence activity against ECHCG [17] | pre-emergence activity against POLCO [20] | pre-emergence activity against SETVI ([21]; application rate 320 g/ha) | post-emergence activity against ECHCG [26] | post-emergence activity against TRZAS [29] | post-emergence activity against ORYZA [30] | pre-emergence activity against ECHCG ([1]; application rate 1280 g/ha) | post-emergence activity against VIOTR [35] | post-emergence activity against ZEAMX ([28]; application rate 320 g/ha) | other results
1 | 0% | – | – | O=C1N(Cc2ccccc2)CCC12CCCN(Cc1cccc(F)c1F)C2=O (racemic) [I-028] | 100% | 100% | 90% | 100% | 90% | 90% | 90% | 100% | 100% | 90% | 100% | 80% | 0% | 0% | – | – | – | pre-emergence activity against LOLRI ([2]; application rate 320 g/ha): 100%; pre-emergence activity against MATIN ([3]; application rate 320 g/ha): 90%; pre-emergence activity against KCHSC ([8]; application rate 320 g/ha): 90%; post-emergence activity against ECHCG [11]: 90%; post-emergence activity against MATIN [12]: 90%; post-emergence activity against SETVI [13]: 90%; pre-emergence activity against ABUTH [14]: 90%; pre-emergence activity against ALOMY [15]: 90%; pre-emergence activity against LOLRI [18]: 100%; pre-emergence activity against MATIN [19]: 80%; pre-emergence activity against VERPE [22]: 90%; pre-emergence activity against VIOTR [23]: 90%; pre-emergence activity against TRZAS ([25]; application rate 80 g/ha): 20%; post-emergence activity against SETVI ([27]; application rate 320 g/ha): 80%; post-emergence activity against ZEAMX ([28]; application rate 80 g/ha): 0%; pre-emergence activity against ORYZA ([31]; application rate 80 g/ha): 0%
2 | – | 0% | 0% | O=C1N(Cc2cc(F)ccc2Cl)CCCC12CCCN(Cc1cc(F)ccc1Cl)C2=O (racemic) [I-069] | – | 100% | 90% | 100% | – | 90% | 100% | 100% | 80% | 80% | 100% | – | 0% | 0% | 90% | 90% | 20% | post-emergence activity against ALOMY [32]: 100%; pre-emergence activity against GLXMA [33]: 0%; post-emergence activity against GLXMA [36]: 20%; post-emergence activity against BRSNW [37]: 0%; pre-emergence activity against ORYZA ([31]; application rate 320 g/ha): 20%
3 | – | – | – | O=C1N(Cc2cccc(F)c2F)CCC12CCN(Cc1cccc(F)c1F)C2=O (racemic) [I-090] | – | – | – | – | – | – | – | – | – | – | – | – | – | – | 100% | – | – | pre-emergence activity against LOLRI ([2]; application rate 1280 g/ha): 90%; pre-emergence activity against MATIN ([3]; application rate 1280 g/ha): 90%; pre-emergence activity against SETVI ([4]; application rate 1280 g/ha): 90%; pre-emergence activity against STEME ([5]; application rate 1280 g/ha): 90%; pre-emergence activity against KCHSC ([8]; application rate 1280 g/ha): 90%; post-emergence activity against KCHSC [38]: 90%
4 | 20% | 20% | 20% | O=C1N(Cc2cccc(F)c2Cl)CCCC12CCCN(Cc1cccc(F)c1Cl)C2=O (racemic) [I-047] | 90% | – | – | – | 100% | 90% | – | – | 80% | – | – | 80% | 20% | 0% | – | 80% | 10% | pre-emergence activity against LOLRI ([2]; application rate 1280 g/ha): 90%; pre-emergence activity against SETVI ([4]; application rate 1280 g/ha): 100%; pre-emergence activity against POAAN ([6]; application rate 1280 g/ha): 100%; post-emergence activity against VERPE [39]: 90%; pre-emergence activity against SETVI ([21]; application rate 80 g/ha): 80%; post-emergence activity against SETVI ([27]; application rate 80 g/ha): 80%; post-emergence activity against GLXMA [36]: 20%; post-emergence activity against BRSNW [37]: 20%; pre-emergence activity against ORYZA ([31]; application rate 320 g/ha): 0%
